Measured values published in patent US20040014634A1, “Thieno[2,3-d]pyrimidinediones and their use as pharmaceuticals” (priority 2000, published 2004).
Where a name gives a salt, the structure may show the parent alone.

melting point [°C]	SMILES
141 to 144	CC(C)Cn1c(=O)n(C)c(=O)c2c(Sc3nccs3)c(Cc3ccccc3C(F)(F)F)sc21 [Example 29, 3-Methyl-1-(2-methylpropyl)-5-(2-thiazolylthio)-6-[[2-(trifluoromethyl)-phenyl]methyl]-thieno[2,3-d]pyrimidine-2,4(1H,3H)-dione]
169 to 170	CC(C)Cn1c(=O)n(C)c(=O)c2c(Sc3nncs3)c(Cc3ccccc3C(F)(F)F)sc21 [Example 32, 3-Methyl-1-(2-methylpropyl)-5-(1,3,4-thiadiazol-2-ylthio)-6-[2-(trifluoromethyl)benzyl]-thieno[2,3-d]pyrimidine-2,4(1H,3H)dione]
166.8 to 167.6	CC(C)Cn1c(=O)n(C)c(=O)c2c(Sc3nccs3)c(C(=O)c3ccnc4ccccc34)sc21 [Example 48, 3-Methyl-1-(2-methylpropyl)-6-(4-quinolinylcarbonyl)-5-(1,3-thiazol-2-ylthio)-thieno[2,3-d]pyrimidine-2,4(1H,3H)-dione]
182.8 to 184	CC(C)Cn1c(=O)n(C)c(=O)c2c(Sc3nccs3)c(C(O)c3ccnc4ccccc34)sc21 (centres unmarked) [Example 49, 6-[Hydroxy-(4-quinolinyl)-methyl]-3-methyl-1-(2-methylpropyl)-5-(1,3-thiazol-2-ylthio)-thieno[2,3-d]pyrimidine-2,4(1H,3H)-dione]
237 to 238.2	CC(C)Cn1c(=O)n(C)c(=O)c2c(Sc3nnc[nH]3)c(Cc3csc4ccccc34)sc21 [Example 50, 6-(1-Benzothien3-ylmethyl)-3-methyl-1-(2-methylpropyl)-5-(4H-1,2,4-triazol-3-ylthio)-thieno[2,3-d]pyrimidine-2,4(1H,3H)-dione]
198	CC(C)Cn1c(=O)n(C)c(=O)c2c(Sc3cccs3)c(Cn3cnc4ccccc43)sc21 [Example 51]
163	CC(C)Cn1c(=O)n(C)c(=O)c2c(Sc3cccs3)c(CN3C(=O)c4ccccc4C3=O)sc21 [Example 54, 6-[(1,3-Dihydro-1,3-dioxo-2H-isoindol-2-yl)methyl]-3-methyl-1-(2-methylpropyl)-5-(2-thienylthio)-thieno[2,3-d]pyrimidine-2,4(1H,3H)-dione]

Second part, the compound before the results:

SMILES	melting point [°C]
Cc1n[nH]c(Sc2c(Cc3ccccc3C(F)(F)F)sc3c2c(=O)n(C)c(=O)n3CC(C)C)n1 (as salt: hydrochloride) [Example 30, 3-Methyl-1-(2-methylpropyl)-5-[(5-methyl-1H-1,2,4-triazol-3yl)thiol-6-[[2-(trifluoromethyl)phenyl]methyl]-thieno[2,3-d]pyrimidine-2,4(1H,3H)-dione dihydrochloride]	154
CC(C)Cn1c(=O)n(C)c(=O)c2c(Sc3nc[nH]n3)c(Cc3ccccc3C(F)(F)F)sc21 [Example 13, 3-Methyl-1-(2-methylpropyl)-5-(1H-1,2,4-triazol-3-ylthio)-6-[[2-(trifluoromethyl)phenyl]methyl]-thieno[2,3-d]pyrimidine-2,4(1H,3H)-dione]	186 to 187
Cc1nc(Sc2c(C(=O)c3ccccc3C(F)(F)F)sc3c2c(=O)n(C)c(=O)n3CC(C)C)n[nH]1 [Example 18]	220 to 222
CC(C)Cn1c(=O)n(C)c(=O)c2c(Sc3ncc[nH]3)c(C(=O)c3ccccc3C(F)(F)F)sc21 [Example 22, 5-(1H-Imidazol-2-ylthio)-3-methyl-1-(2-methylpropyl)-6-[2-(trifluoromethyl)bezoyl]-thieno[2,3-d]pyrimidine-2,4(1H,3H)-dione]	123 to 127
CC(C)Cn1c(=O)n(C)c(=O)c2c(Sc3ncc[nH]3)c(Cc3ccccc3C(F)(F)F)sc21 [Example 31, 5-(1H-Imidazol-2-ylthio)-3-methyl-1-(2-methylpropyl)-6-[[2-(trifluoromethyl)phenyl]methyl]-thieno[2,3-d]pyrimidine-2,4(1H,3H)-dione]	221 to 225
CC(C)Cn1c(=O)n(C)c(=O)c2c(Sc3nnc(N)s3)c(Cc3ccccc3C(F)(F)F)sc21 [Example 33, 5-[(5-Amino-1,3,4-thiadiazol-2-yl)thio]-3-methyl-1-(2-methylpropyl)-6-[2-(trifluoromethyl)benzyl]-thieno[2,3-d]pyrimidine-2,4(1H,3H)-dione]	236 to 237
CC(C)Cn1c(=O)n(C)c(=O)c2c(S(=O)(=O)c3nc[nH]n3)c(C(O)c3ccccc3C(F)(F)F)sc21 (centres unmarked) [Example 37, 6-[Hydroxy[2-(trifluoromethyl)phenyl]methyl]-3-methyl-1-(2-methylpropyl)-5-(1H-1,2,4-triazol-3-ylsulfonyl)-thieno[2,3-d]pyrimidine-2,4(1H,3H)-dione]	198 to 202
CC(C)Cn1c(=O)n(C)c(=O)c2c(S(=O)(=O)c3nncs3)c(Cc3ccccc3C(F)(F)F)sc21 [Example 39, 3-Methyl-1-(2-methylpropl)-5-(1,3,4-thiadiazol-2-ylsulfonyl)-6-[2-(trifluoromethyl)benzyl]-thieno[2,3-d]pyrimidine-2,4(1H,3H)-dione]	148 to 149
CC(C)Cn1c(=O)n(C)c(=O)c2c(Sc3nc(Br)n[nH]3)c(Cc3ccccc3C(F)(F)F)sc21 [Example 40]	174 to 175
CC(C)Cn1c(=O)n(C)c(=O)c2c(Sc3n[nH]c(=O)[nH]3)c(Cc3ccccc3C(F)(F)F)sc21 [Example 41, 3-Methyl-1-(2-methylpropyl)-5-[(5-oxo-4,5-dilydro-1H-1,2,4-triazol-3-yl)thio]-6-[2-(trifluoromethyl)phenylmethyl]-thieno[2,3-d]pyrimidine-2,4(1H,3H)-dione]	205 to 211
